Earlier results on four molecules are cited in patent US20130224794A1, “MINERAL-PEPTIDE CHELATES” (NUGEN BIOSCIENCE (TAIWAN) CO., LTD., priority 2009, published 2013).

For this data set the following is noted: for absorption: qualitative.
The mark [1] stands for this setting: general soybean isoflavones, glucoside vs aglycone form.

Like-named read-outs stand apart in the source and are kept apart here.

With `O=c1c(-c2ccc(O)cc2)coc2cc(O[C@@H]3O[C@H](CO)[C@@H](O)[C@H](O)[C@H]3O)ccc12` [daidzin], under setting [1], the bioavailability is 20% and the absorption result is “slow”. As for `O=c1c(-c2ccc(O)cc2)coc2cc(O[C@@H]3O[C@H](CO)[C@@H](O)[C@H](O)[C@H]3O)cc(O)c12` [genistin], under setting [1], the bioavailability is listed as 20% and the absorption entry is recorded as “slow”.

As for `O=c1c(-c2ccc(O)cc2)coc2cc(O)ccc12` [daidzein], the bioavailability (in vivo) is given as 90%.

Take `O=c1c(-c2ccc(O)cc2)coc2cc(O)cc(O)c12` [genistein]: under setting [1], the bioavailability is given as 90% and the absorption result is listed as “fast”.
